Reference: patent US8512681B2 (GUMLINK A/S, priority 2005, dated 2013)

Test system: plaque
Conditions: in chewing gum

CC(=O)[O-].CC(=O)[O-].[Zn+2] [zinc acetate]
effect on plaque in hard-to-reach places (in words): worked in the “hard-to-reach” places with high efficiency
